Measured values reported in patent US11739101B2, “Bifunctional degraders of hematopoietic progenitor kinase and therapeutic uses thereof” (Nurix Therapeutics, Inc., priority 2020, dated 2023).

target: T1, HPK1 (Homo sapiens, UniProt Q92918); test: HPK1 Cellular HiBiT Degradation Assay; assay type: cell-based; details: HiBiT-tagged HPK1 Jurkat cells, 24 hours, 10 uM to 0.1 nM; Dmax = 100 minus lowest % HPK1 remaining vs DMSO vehicle
T1 construct: A HiBiT tag was introduced by CRISPR on the N terminus of HPK1 in Jurkat cells; host or cells: Jurkat (ATCC TIB-152), monoclonal CRISPR HiBiT knock-in line
Summary of the method: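 Dmax is derived from four-parameter curves of % HPK1 remaining, as 100 minus the lowest value, normalized to DMSO-treated cells with parental Jurkat background subtracted. HiBiT-HPK1 knock-in Jurkat cells got compound for 24 hours (final 10 uM to 0.1 nM, 11 points) before lytic HiBiT luminescence. Cytotoxicity was checked on parallel CellTiter-Glo plates.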

T1 sequence (Q92918 whole entry): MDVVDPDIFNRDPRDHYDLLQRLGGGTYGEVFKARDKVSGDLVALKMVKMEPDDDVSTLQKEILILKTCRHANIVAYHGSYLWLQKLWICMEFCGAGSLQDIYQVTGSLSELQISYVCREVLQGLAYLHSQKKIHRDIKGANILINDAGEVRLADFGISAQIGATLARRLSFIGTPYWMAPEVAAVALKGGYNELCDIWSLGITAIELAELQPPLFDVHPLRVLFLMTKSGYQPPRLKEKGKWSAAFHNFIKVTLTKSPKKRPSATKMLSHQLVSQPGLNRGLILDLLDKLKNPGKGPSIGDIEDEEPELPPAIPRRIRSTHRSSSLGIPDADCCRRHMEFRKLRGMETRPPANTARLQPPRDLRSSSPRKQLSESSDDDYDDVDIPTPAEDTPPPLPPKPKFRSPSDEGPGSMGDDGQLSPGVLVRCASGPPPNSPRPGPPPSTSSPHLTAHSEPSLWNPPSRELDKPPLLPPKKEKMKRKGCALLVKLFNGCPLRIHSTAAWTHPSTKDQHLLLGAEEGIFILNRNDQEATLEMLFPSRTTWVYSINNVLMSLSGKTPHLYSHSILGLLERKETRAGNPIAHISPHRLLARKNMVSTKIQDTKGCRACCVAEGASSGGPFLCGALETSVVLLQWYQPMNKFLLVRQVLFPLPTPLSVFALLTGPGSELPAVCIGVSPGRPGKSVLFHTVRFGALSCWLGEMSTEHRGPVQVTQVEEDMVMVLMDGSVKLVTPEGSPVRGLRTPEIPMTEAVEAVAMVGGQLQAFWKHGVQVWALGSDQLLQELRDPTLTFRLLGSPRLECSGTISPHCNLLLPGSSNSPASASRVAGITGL

Row | SMILES | Dmax [%]
1 | Cc1cc(F)c(Nc2nc(-c3ccc4c(c3)N([C@H]3C[C@@H](N5CCCCC5)C3)C(=O)C43CCN(C(=O)C4CCN(CC5CCN(c6cccc7c6C(=O)N(C6CCC(=O)NC6=O)C7=O)CC5)CC4)CC3)cc3ncn(C(C)C)c23)cc1C(=O)NC(C)C (stereo partly drawn) [Example 37, 5-{[6-(1′-{1-[(1-{2-[2,6-dioxopiperidin-3-yl]-1,3-dioxo-2,3-dihydro-1H-isoindol-4-yl}piperidin-4-yl)methyl]piperidine-4-carbonyl}-2-oxo-1-[(1s,3s)-3-(piperidin-1-yl)cyclobutyl]-1,2-dihydrospiro[indole-3,4′-piperidin]-6-yl)-3-(propan-2-yl)-3H-imidazo[4,5-c]pyridin-4-yl]amino}-4-fluoro-2-methyl-N-(propan-2-yl)benzamide] | > 65
2 | Cc1cc(F)c(Nc2nc(-c3ccc4c(c3)N([C@H]3C[C@@H](N5CCCCC5)C3)C(=O)C43CCN(C(=O)OC4CCN(C(=O)C5CCN(c6ccc7c(c6)C(=O)N(C6CCC(=O)NC6=O)C7=O)CC5)CC4)CC3)cc3ncn(C(C)C)c23)cc1C(=O)NC(C)C (stereo partly drawn) [Example 55, 1-(1-{2-[2,6-dioxopiperidin-3-yl]-1,3-dioxoisoindol-5-yl}piperidine-4-carbonyl)piperidin-4-yl 6-(4-{[2-fluoro-5-(isopropylcarbamoyl)-4-methylphenyl]amino}-3-isopropylimidazo[4,5-c]pyridin-6-yl)-2-oxo-1-[(1s,3s)-3-(piperidin-1-yl)cyclobutyl]spiro[indole-3,4′-piperidine]-1′-carboxylate] | > 65
3 | Cc1cc(F)c(Nc2nc(-c3ccc4c(c3)N([C@H]3C[C@@H](N5CCCCC5)C3)C(=O)C43CCN(C(=O)c4ccc(C(=O)N5CCC(c6ccc7c(c6)C(=O)N(C6CCC(=O)NC6=O)C7=O)CC5)cc4)CC3)cc3ncn(C(C)C)c23)cc1C(=O)NC(C)C (stereo partly drawn) [Example 76, 5-[(6-{1′-[4-(4-{2-[2,6-dioxopiperidin-3-yl]-1,3-dioxo-2,3-dihydro-1H-isoindol-5-yl}piperidine-1-carbonyl)benzoyl]-2-oxo-1-[(1s,3s)-3-(piperidin-1-yl)cyclobutyl]-1,2-dihydrospiro[indole-3,4′-piperidin]-6-yl}-3-(propan-2-yl)-3H-imidazo[4,5-c]pyridin-4-yl)amino]-4-fluoro-2-methyl-N-(propan-2-yl)benzamide] | 45 to 65
4 | Cc1cc(F)c(Nc2nc(-c3ccc4c(c3)N([C@H]3C[C@@H](N5CCCCC5)C3)C(=O)C43CCN(C(=O)c4cnc(N5CCN(c6cccc7c6C(=O)N(C6CCC(=O)NC6=O)C7=O)CC5)cn4)CC3)cc3ncn(C(C)C)c23)cc1C(=O)NC(C)C (stereo partly drawn) [Example 84, 5-((6-(1′-(5-(4-(2-(2,6-dioxopiperidin-3-yl)-1,3-dioxoisoindolin-4-yl)piperazin-1-yl)pyrazine-2-carbonyl)-2-oxo-1-((1s,3s)-3-(piperidin-1-yl)cyclobutyl)spiro[indoline-3,4′-piperidin]-6-yl)-3-isopropyl-3H-imidazo[4,5-c]pyridin-4-yl)amino)-4-fluoro-N-isopropyl-2-methylbenzamide] | 45 to 65
5 | Cc1cc(F)c(Nc2nc(-c3ccc4c(c3)N(C3CC(N5CCCCC5)C3)C(=O)C43CCN(C(=O)CCCCCCCCCNc4ccc5c(c4)C(=O)N(C4CCC(=O)NC4=O)C5=O)CC3)cc3ncn(C(C)C)c23)cc1C(=O)NC(C)C (stereo not drawn) [Example 4, 5-((6-(1′-(10-((2-(2,6-dioxopiperidin-3-yl)-1,3-dioxoisoindolin-5-yl)amino)decanoyl)-2-oxo-1-((1s,3s)-3-(piperidin-1-yl)cyclobutyl)spiro[indoline-3,4′-piperidin]-6-yl)-3-isopropyl-3H-imidazo[4,5-c]pyridin-4-yl)amino)-4-fluoro-N-isopropyl-2-methylbenzamide] | < 45
6 | Cc1cc(F)c(Nc2nc(-c3ccc4c(c3)N([C@H]3C[C@@H](N5CCCCC5)C3)C(=O)C43CCN(C(=O)C[C@H]4CC[C@H](Nc5cccc6c5C(=O)N(C5CCC(=O)NC5=O)C6=O)CC4)CC3)cc3ncn(C(C)C)c23)cc1C(=O)NC(C)C (stereo partly drawn) [Example 80, 5-((6-(1′-(2-((1R,4R)-4-((2-(2,6-dioxopiperidin-3-yl)-1,3-dioxoisoindolin-4-yl)amino)cyclohexyl)acetyl)-2-oxo-1-((1s,3s)-3-(piperidin-1-yl)cyclobutyl)spiro[indoline-3,4′-piperidin]-6-yl)-3-isopropyl-3H-imidazo[4,5-c]pyridin-4-yl)amino)-4-fluoro-N-isopropyl-2-methylbenzamide] | 45 to 65
7 | Cc1cc(F)c(Nc2nc(-c3ccc4c(c3)N([C@H]3C[C@@H](N5CCCCC5)C3)C(=O)C43CCN(C(=O)c4ccc(C(=O)N5CCC(Cc6cccc7c6C(=O)N(C6CCC(=O)NC6=O)C7=O)CC5)cc4)CC3)cc3ncn(C(C)C)c23)cc1C(=O)NC(C)C (stereo partly drawn) [Example 77, 5-{[6-(1′-{4-[4-({2-[2,6-dioxopiperidin-3-yl]-1,3-dioxo-2,3-dihydro-1H-isoindol-4-yl}methyl)piperidine-1-carbonyl]benzoyl}-2-oxo-1-[(1s,3s)-3-(piperidin-1-yl)cyclobutyl]-1,2-dihydrospiro[indole-3,4′-piperidin]-6-yl)-3-(propan-2-yl)-3H-imidazo[4,5-c]pyridin-4-yl]amino}-4-fluoro-2-methyl-N-(propan-2-yl)benzamide] | 45 to 65
8 | Cc1cc(F)c(Nc2nc(-c3ccc4c(c3)N([C@H]3C[C@@H](N5CCCCC5)C3)C(=O)C43CCN(C(=O)CN4CCC(CCCCC(=O)N[C@H](C(=O)N5C[C@H](O)C[C@H]5C(=O)N[C@@H](C)c5ccc(-c6scnc6C)cc5)C(C)(C)C)CC4)CC3)cc3ncn(C(C)C)c23)cc1C(=O)NC(C)C [Example 19, (2S,4R)-1-((S)-2-(5-(1-(2-(6-(4-((2-fluoro-5-(isopropylcarbamoyl)-4-methylphenyl)amino)-3-isopropyl-3H-imidazo[4,5-c]pyridin-6-yl)-2-oxo-1-((1s,3s)-3-(piperidin-1-yl)cyclobutyl)spiro[indoline-3,4′-piperidin]-1′-yl)-2-oxoethyl)piperidin-4-yl)pentanamido)-3,3-dimethylbutanoyl)-4-hydroxy-N—((S)-1-(4-(4-methylthiazol-5-yl)phenyl)ethyl)pyrrolidine-2-carboxamide] | < 45
9 | Cc1cc(F)c(Nc2nc(-c3ccc4c(c3)N([C@H]3C[C@@H](N5CCCCC5)C3)C(=O)C43CCN(CCOCCOCCOCCOCCOCCOCCOCCNc4cccc5c4C(=O)N(C4CCC(=O)NC4=O)C5=O)CC3)cc3ncn(C(C)C)c23)cc1C(=O)NC(C)C (stereo partly drawn) [Example 43, 5-[(6-{1′-[23-({2-[2,6-dioxopiperidin-3-yl]-1,3-dioxo-2,3-dihydro-1H-isoindol-4-yl}amino)-3,6,9,12,15,18,21-heptaoxatricosan-1-yl]-2-oxo-1-[(1s,3s)-3-(piperidin-1-yl)cyclobutyl]-1,2-dihydrospiro[indole-3,4′-piperidin]-6-yl}-3-(propan-2-yl)-3H-imidazo[4,5-c]pyridin-4-yl)amino]-4-fluoro-2-methyl-N-(propan-2-yl)benzamide] | > 65
10 | Cc1cc(F)c(Nc2nc(-c3ccc4c(c3)N([C@H]3C[C@@H](N5CCCCC5)C3)C(=O)C43CCN(C(=O)[C@@H]4CCN(C(=O)[C@H]5CC[C@H](N(C)c6cccc7c6C(=O)N(C6CCC(=O)NC6=O)C7=O)CC5)C4)CC3)cc3ncn(C(C)C)c23)cc1C(=O)NC(C)C (stereo partly drawn) [Example 67, 4-fluoro-2-methyl-5-[(6-{2-oxo-1′-[(3R)-1-[(R,4R)-4-({2-[2,6-dioxopiperidin-3-yl]-1,3-dioxo-2,3-dihydro-1H-isoindol-4-yl}(Methyl)amino)cyclohexanecarbonyl]pyrrolidine-3-carbonyl]-1-[(1s,3s)-3-(piperidin-1-yl)cyclobutyl]-1,2-dihydrospiro[indole-3,4′-piperidin]-6-yl}-3-(propan-2-yl)-3H-imidazo[4,5-c]pyridin-4-yl)amino]-N-(propan-2-yl)benzamide] | > 65
11 | Cc1cc(F)c(Nc2nc(-c3ccc4c(c3)N([C@H]3C[C@@H](N5CCCCC5)C3)C(=O)C43CCN(C(=O)CCC4CCN(CC(=O)N[C@H](C(=O)N5C[C@H](O)C[C@H]5C(=O)N[C@@H](C)c5ccc(-c6scnc6C)cc5)C(C)(C)C)CC4)CC3)cc3ncn(C(C)C)c23)cc1C(=O)NC(C)C [Example 14, (2S,4R)-1-((S)-2-(2-(4-(3-(6-(4-((2-fluoro-5-(isopropylcarbamoyl)-4-methylphenyl)amino)-3-isopropyl-3H-imidazo[4,5-c]pyridin-6-yl)-2-oxo-1-((1s,3s)-3-(piperidin-1-yl)cyclobutyl)spiro[indoline-3,4′-piperidin]-1′-yl)-3-oxopropyl)piperidin-1-yl)acetamido)-3,3-dimethylbutanoyl)-4-hydroxy-N—((S)-1-(4-(4-methylthiazol-5-yl)phenyl)ethyl)pyrrolidine-2-carboxamide] | 45 to 65
12 | CC(=O)N1CCC2(CC1)C(=O)N([C@H]1C[C@@H](N3CCC[C@@H](C(=O)NCCCCCCCCCOc4cc(-c5scnc5C)ccc4CNC(=O)[C@@H]4C[C@@H](O)CN4C(=O)[C@@H](NC(=O)C4(F)CC4)C(C)(C)C)C3)C1)c1cc(-c3cc4ncn(C(C)C)c4c(Nc4cc(C(=O)NC(C)C)c(C)cc4F)n3)ccc12 [Example 17, (R)-1-((1s,3s)-3-(1′-acetyl-6-(4-((2-fluoro-5-(isopropylcarbamoyl)-4-methylphenyl)amino)-3-isopropyl-3H-imidazo[4,5-c]pyridin-6-yl)-2-oxospiro[indoline-3,4′-piperidin]-1-yl)cyclobutyl)-N-(9-(2-(((2S,4R)-1-((S)-2-(1-fluorocyclopropane-1-carboxamido)-3,3-dimethylbutanoyl)-4-hydroxypyrrolidine-2-carboxamido)methyl)-5-(4-methylthiazol-5-yl)phenoxy)nonyl)piperidine-3-carboxamide] | < 45
